Test results taken from patent US12304890B2, “R-type pyridyloxycarboxylic acid, salt and ester derivative thereof, and preparation method therefor, and herbicidal composition and application thereof” (Qingdao Kingagroot Chemical Compound Co., Ltd., priority 2018, dated 2025).

Key:
Type in all cases: in vivo
[1] = test system: Monocotyledonous and dicotyledonous weed seeds and main crop seeds; assay: Post-emergence test experiment, other weeds and crops (Table 4, 1000 g a.i./ha); conditions: 3 weeks in greenhouse, fresh weight inhibition
Summary of the method: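 Growth inhibition is scored on fresh weight. Spray solutions were made in acetone with tween-80, diluted in water, plus 1.5 L/ha methyl oleate emulsible concentrate. Plants from greenhouse-grown weed and crop seeds were treated post-emergence at 2-3 leaves, 2 weeks after sowing.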

Digitaria sanguinalis = assay: Post-emergence test experiment, Digitaria sanguinalis; conditions: 1000 g a.i./ha, 3 weeks in greenhouse, fresh weight inhibition
Method: (§1) The above described growth inhibition rate is fresh weight inhibition rate.
(§2) Post-emergence test experiment: Monocotyledonous and dicotyledonous weed seeds and main crop seeds (i. e. wheat, corn, rice, soybean, cotton, oilseed, millet and sorghum.) were put into a plastic pot loaded with soil. Then covered with 0.5-2 cm soil, the seeds were allowed to grow in good greenhouse environment. The test plants were treated at 2-3 leaf stage 2 weeks after sowing. The test compounds of the invention were dissolved with acetone respectively, then added with tween-80, and using 1.5 liters per hectare of an emulsible concentrate of methyl oleate as a synergist, and diluted by certain amount of water to certain concentration. The solution was sprayed to the plants with a sprayer. Then the plants were cultured for 3 weeks in the greenhouse, and the experiment result of weed controlling effect was listed in tables 4-5.

Echinochloa crusgalli = assay: Post-emergence test experiment, Echinochloa crusgalli; conditions: 1000 g a.i./ha, 3 weeks in greenhouse, fresh weight inhibition
Method: as §1, §2

CC(Oc1nc(F)c(Cl)c(N)c1Cl)C(=O)[S-].C[N+](C)(C)C (stereo not shown) [Compound 2-4]
Activity level (growth inhibition rate), Abutilon theophrasti Medic. [1]: 5 (Level 5: the growth inhibition rate is greater than 85%) | Activity level (growth inhibition rate), Galium aparine [1]: 5 (Level 5: the growth inhibition rate is greater than 85%) | Activity level (growth inhibition rate), Monochoria Vaginalis [1]: 5 (Level 5: the growth inhibition rate is greater than 85%) | Activity level (growth inhibition rate), Digitaria sanguinalis (Digitaria sanguinalis): 5 (Level 5: the growth inhibition rate is greater than 85%) | Activity level (growth inhibition rate), Echinochloa crusgalli (Echinochloa crusgalli): 5 (Level 5: the growth inhibition rate is greater than 85%)

CC(Oc1nc(F)c(Cl)c(N)c1Cl)C(=O)O.CNC (stereo not shown) [Compound 2-7]
Activity level (growth inhibition rate), Abutilon theophrasti Medic. [1]: 5 (Level 5: the growth inhibition rate is greater than 85%) | Activity level (growth inhibition rate), Galium aparine [1]: 5 (Level 5: the growth inhibition rate is greater than 85%) | Activity level (growth inhibition rate), Monochoria Vaginalis [1]: 5 (Level 5: the growth inhibition rate is greater than 85%) | Activity level (growth inhibition rate), Digitaria sanguinalis (Digitaria sanguinalis): 5 (Level 5: the growth inhibition rate is greater than 85%) | Activity level (growth inhibition rate), Echinochloa crusgalli (Echinochloa crusgalli): 5 (Level 5: the growth inhibition rate is greater than 85%)

CC(Oc1nc(F)c(Cl)c(N)c1Cl)C(=O)O.CN(C)CCO (stereo not shown) [Compound 2-14]
Activity level (growth inhibition rate), Abutilon theophrasti Medic. [1]: 5 (Level 5: the growth inhibition rate is greater than 85%) | Activity level (growth inhibition rate), Galium aparine [1]: 5 (Level 5: the growth inhibition rate is greater than 85%) | Activity level (growth inhibition rate), Monochoria Vaginalis [1]: 5 (Level 5: the growth inhibition rate is greater than 85%) | Activity level (growth inhibition rate), Digitaria sanguinalis (Digitaria sanguinalis): 5 (Level 5: the growth inhibition rate is greater than 85%) | Activity level (growth inhibition rate), Echinochloa crusgalli (Echinochloa crusgalli): 5 (Level 5: the growth inhibition rate is greater than 85%)

CC(N)CN.CC(Oc1nc(F)c(Cl)c(N)c1Cl)C(=O)S (stereo not shown) [Compound 2-17]
Activity level (growth inhibition rate), Abutilon theophrasti Medic. [1]: 5 (Level 5: the growth inhibition rate is greater than 85%) | Activity level (growth inhibition rate), Galium aparine [1]: 5 (Level 5: the growth inhibition rate is greater than 85%) | Activity level (growth inhibition rate), Monochoria Vaginalis [1]: 5 (Level 5: the growth inhibition rate is greater than 85%) | Activity level (growth inhibition rate), Digitaria sanguinalis (Digitaria sanguinalis): 5 (Level 5: the growth inhibition rate is greater than 85%) | Activity level (growth inhibition rate), Echinochloa crusgalli (Echinochloa crusgalli): 5 (Level 5: the growth inhibition rate is greater than 85%)

CC(Oc1nc(F)c(Cl)c(N)c1Cl)C(=O)O.CCC(N)(CO)CO (stereo not shown) [Compound 2-22]
Activity level (growth inhibition rate), Abutilon theophrasti Medic. [1]: 5 (Level 5: the growth inhibition rate is greater than 85%) | Activity level (growth inhibition rate), Galium aparine [1]: 5 (Level 5: the growth inhibition rate is greater than 85%) | Activity level (growth inhibition rate), Monochoria Vaginalis [1]: 5 (Level 5: the growth inhibition rate is greater than 85%) | Activity level (growth inhibition rate), Digitaria sanguinalis (Digitaria sanguinalis): 5 (Level 5: the growth inhibition rate is greater than 85%) | Activity level (growth inhibition rate), Echinochloa crusgalli (Echinochloa crusgalli): 5 (Level 5: the growth inhibition rate is greater than 85%)

C1COCCN1.CC(Oc1nc(F)c(Cl)c(N)c1Cl)C(=O)O (stereo not shown) [Compound 2-24]
Activity level (growth inhibition rate), Abutilon theophrasti Medic. [1]: 5 (Level 5: the growth inhibition rate is greater than 85%) | Activity level (growth inhibition rate), Galium aparine [1]: 5 (Level 5: the growth inhibition rate is greater than 85%) | Activity level (growth inhibition rate), Monochoria Vaginalis [1]: 5 (Level 5: the growth inhibition rate is greater than 85%) | Activity level (growth inhibition rate), Digitaria sanguinalis (Digitaria sanguinalis): 5 (Level 5: the growth inhibition rate is greater than 85%) | Activity level (growth inhibition rate), Echinochloa crusgalli (Echinochloa crusgalli): 5 (Level 5: the growth inhibition rate is greater than 85%)

COC(=O)[C@@H](C)Oc1ncc(Cl)c(N)c1C [Compound 2-28]
Activity level (growth inhibition rate), Abutilon theophrasti Medic. [1]: 5 (Level 5: the growth inhibition rate is greater than 85%) | Activity level (growth inhibition rate), Galium aparine [1]: 5 (Level 5: the growth inhibition rate is greater than 85%) | Activity level (growth inhibition rate), Monochoria Vaginalis [1]: 5 (Level 5: the growth inhibition rate is greater than 85%) | Activity level (growth inhibition rate), Digitaria sanguinalis (Digitaria sanguinalis): 5 (Level 5: the growth inhibition rate is greater than 85%) | Activity level (growth inhibition rate), Echinochloa crusgalli (Echinochloa crusgalli): 5 (Level 5: the growth inhibition rate is greater than 85%)

COC(=O)[C@@H](C)Oc1nc(F)c(Cl)c(N)c1C [Compound 2-29]
Activity level (growth inhibition rate), Abutilon theophrasti Medic. [1]: 5 (Level 5: the growth inhibition rate is greater than 85%) | Activity level (growth inhibition rate), Galium aparine [1]: 5 (Level 5: the growth inhibition rate is greater than 85%) | Activity level (growth inhibition rate), Monochoria Vaginalis [1]: 5 (Level 5: the growth inhibition rate is greater than 85%) | Activity level (growth inhibition rate), Digitaria sanguinalis (Digitaria sanguinalis): 5 (Level 5: the growth inhibition rate is greater than 85%) | Activity level (growth inhibition rate), Echinochloa crusgalli (Echinochloa crusgalli): 5 (Level 5: the growth inhibition rate is greater than 85%)

COC(=O)[C@@H](C)Oc1nc(Cl)c(Cl)c(N)c1Cl [Compound 2-31]
Activity level (growth inhibition rate), Abutilon theophrasti Medic. [1]: 5 (Level 5: the growth inhibition rate is greater than 85%) | Activity level (growth inhibition rate), Galium aparine [1]: 5 (Level 5: the growth inhibition rate is greater than 85%) | Activity level (growth inhibition rate), Monochoria Vaginalis [1]: 5 (Level 5: the growth inhibition rate is greater than 85%) | Activity level (growth inhibition rate), Digitaria sanguinalis (Digitaria sanguinalis): 5 (Level 5: the growth inhibition rate is greater than 85%) | Activity level (growth inhibition rate), Echinochloa crusgalli (Echinochloa crusgalli): 5 (Level 5: the growth inhibition rate is greater than 85%)

COC(=O)[C@@H](C)Oc1nc(C)c(Cl)c(N)c1Cl [Compound 2-32]
Activity level (growth inhibition rate), Abutilon theophrasti Medic. [1]: 5 (Level 5: the growth inhibition rate is greater than 85%) | Activity level (growth inhibition rate), Galium aparine [1]: 5 (Level 5: the growth inhibition rate is greater than 85%) | Activity level (growth inhibition rate), Monochoria Vaginalis [1]: 5 (Level 5: the growth inhibition rate is greater than 85%) | Activity level (growth inhibition rate), Digitaria sanguinalis (Digitaria sanguinalis): 5 (Level 5: the growth inhibition rate is greater than 85%) | Activity level (growth inhibition rate), Echinochloa crusgalli (Echinochloa crusgalli): 5 (Level 5: the growth inhibition rate is greater than 85%)

CC(C)OC(=O)[C@@H](C)Oc1nc(F)c(Cl)c(N)c1Cl [Compound 2-75]
Activity level (growth inhibition rate), Abutilon theophrasti Medic. [1]: 5 (Level 5: the growth inhibition rate is greater than 85%) | Activity level (growth inhibition rate), Galium aparine [1]: 5 (Level 5: the growth inhibition rate is greater than 85%) | Activity level (growth inhibition rate), Monochoria Vaginalis [1]: 5 (Level 5: the growth inhibition rate is greater than 85%) | Activity level (growth inhibition rate), Digitaria sanguinalis (Digitaria sanguinalis): 5 (Level 5: the growth inhibition rate is greater than 85%) | Activity level (growth inhibition rate), Echinochloa crusgalli (Echinochloa crusgalli): 5 (Level 5: the growth inhibition rate is greater than 85%)

CC(C)SC(=O)[C@@H](C)Oc1nc(F)c(Cl)c(N)c1Cl [Compound 2-76]
Activity level (growth inhibition rate), Abutilon theophrasti Medic. [1]: 5 (Level 5: the growth inhibition rate is greater than 85%) | Activity level (growth inhibition rate), Galium aparine [1]: 5 (Level 5: the growth inhibition rate is greater than 85%) | Activity level (growth inhibition rate), Monochoria Vaginalis [1]: 5 (Level 5: the growth inhibition rate is greater than 85%) | Activity level (growth inhibition rate), Digitaria sanguinalis (Digitaria sanguinalis): 5 (Level 5: the growth inhibition rate is greater than 85%) | Activity level (growth inhibition rate), Echinochloa crusgalli (Echinochloa crusgalli): 5 (Level 5: the growth inhibition rate is greater than 85%)

CC(C)COC(=O)[C@@H](C)Oc1nc(F)c(Cl)c(N)c1Cl [Compound 2-79]
Activity level (growth inhibition rate), Abutilon theophrasti Medic. [1]: 5 (Level 5: the growth inhibition rate is greater than 85%) | Activity level (growth inhibition rate), Galium aparine [1]: 5 (Level 5: the growth inhibition rate is greater than 85%) | Activity level (growth inhibition rate), Monochoria Vaginalis [1]: 5 (Level 5: the growth inhibition rate is greater than 85%) | Activity level (growth inhibition rate), Digitaria sanguinalis (Digitaria sanguinalis): 5 (Level 5: the growth inhibition rate is greater than 85%) | Activity level (growth inhibition rate), Echinochloa crusgalli (Echinochloa crusgalli): 5 (Level 5: the growth inhibition rate is greater than 85%)

CC(C)CSC(=O)[C@@H](C)Oc1nc(F)c(Cl)c(N)c1Cl [Compound 2-80]
Activity level (growth inhibition rate), Abutilon theophrasti Medic. [1]: 5 (Level 5: the growth inhibition rate is greater than 85%) | Activity level (growth inhibition rate), Galium aparine [1]: 5 (Level 5: the growth inhibition rate is greater than 85%) | Activity level (growth inhibition rate), Monochoria Vaginalis [1]: 5 (Level 5: the growth inhibition rate is greater than 85%) | Activity level (growth inhibition rate), Digitaria sanguinalis (Digitaria sanguinalis): 5 (Level 5: the growth inhibition rate is greater than 85%) | Activity level (growth inhibition rate), Echinochloa crusgalli (Echinochloa crusgalli): 5 (Level 5: the growth inhibition rate is greater than 85%)
